Read-outs that look alike come from different tables or passages of the source.
Assays:
Type in all cases: cell-based
[1] = biological target: T1, CDK2-NanoLuc fusion with CCNE1 in 293T or 293 cells (Homo sapiens, UniProt P24941); test: NanoBRET Target Engagement (TE) Intracellular Kinase Assay, CDK2/CCNE1; conditions: NanoBRET TE intracellular kinase assay, 2-hour incubation, read-out: NanoBRET-CDK2/E1 IC50
T1 construct: host or cells: 293T (ATCC CRL-3216) or 293 (ATCC CRL-1573)

[2] = biological target: T2, CDK1-NanoLuc fusion with CCNB1 in 293T or 293 cells (Homo sapiens, UniProt P06493); test: NanoBRET Target Engagement (TE) Intracellular Kinase Assay, CDK1/CCNB1; conditions: NanoBRET TE intracellular kinase assay, 2-hour incubation, read-out: NanoBRET-CDK1/B1 IC50
T2 construct: host or cells: 293T (ATCC CRL-3216) or 293 (ATCC CRL-1573)
T2 sequence (P06493 whole entry, the tested form may be a part): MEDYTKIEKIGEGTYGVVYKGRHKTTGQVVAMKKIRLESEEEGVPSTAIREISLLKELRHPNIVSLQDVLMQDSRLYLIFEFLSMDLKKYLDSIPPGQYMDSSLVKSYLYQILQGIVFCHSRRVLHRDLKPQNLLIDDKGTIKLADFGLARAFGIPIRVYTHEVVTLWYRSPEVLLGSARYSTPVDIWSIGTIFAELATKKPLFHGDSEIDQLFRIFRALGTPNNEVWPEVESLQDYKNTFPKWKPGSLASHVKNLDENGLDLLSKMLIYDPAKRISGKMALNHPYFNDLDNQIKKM
T2 sequence (P14635 whole entry partner, the tested form may be a part): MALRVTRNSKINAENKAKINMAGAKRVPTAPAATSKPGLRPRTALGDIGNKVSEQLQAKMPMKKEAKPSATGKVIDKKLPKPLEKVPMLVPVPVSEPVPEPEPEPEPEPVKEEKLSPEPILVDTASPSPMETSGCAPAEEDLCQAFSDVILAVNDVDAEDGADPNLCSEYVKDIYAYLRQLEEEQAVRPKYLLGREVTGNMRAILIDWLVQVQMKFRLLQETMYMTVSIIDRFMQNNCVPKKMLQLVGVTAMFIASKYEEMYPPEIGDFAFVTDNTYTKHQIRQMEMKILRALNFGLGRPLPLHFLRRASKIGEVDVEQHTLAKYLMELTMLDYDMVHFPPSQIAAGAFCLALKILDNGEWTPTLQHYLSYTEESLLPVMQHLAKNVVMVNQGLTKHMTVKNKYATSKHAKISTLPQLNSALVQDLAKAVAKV
Procedure: Inhibitory effects of compounds were measured in NanoBRET TE Intracellular Kinase Assay. 293T (ATCC; CRL-3216) or 293 (ATCC; CRL-1573) cell lines were maintained in 90% DMEM and 10% fetal bovine serum at 37° C., 5% CO2, and 95% relative humidity. Cells were trypsinized and resuspended in assay media (99% Opti-MEM I Reduced Serum Medium, no phenol red, and 1% fetal bovine serum). Cells were co-transfected with 1 μg/mL of CDK-NanoLuc Fusion Vector (Promega; NV2701 for CDK1, NV2781 for CDK2, NV2811 for CDK4, NV2841 for CDK6) and 1 μg/mL of the corresponding Cyclin Expression Vector (Promega; NV2601 for CCNB1, NV2641 for CCNE1, NV2621 for CCND1, NV2631 for CCND3) using FuGENE HD Transfection Reagent (Promega; E2311). 40 uL/well of cells with transfection mixture were seeded in 384-well plates at 1.25×10^5 to 2×10^5 cells/mL and incubated for 24 hours at 37° C., 5% CO2, and 95% relative humidity. On the next day, 100 nL of 100 μM NanoBRET Tracer K-10 (Promega; N2640) and 40 nL of 1000× test compounds prepared in DMSO were added to the cells in each well of 384-well plates for a 2-hour incubation at 37° C., 5% CO2, and 95% relative humidity. 20 uL/well of 3× Intracellular TE Nano-Glo Substrate/Inhibitor (Promega; N2162) were added to 384-well plates and incubated for 3 minutes at room temperature. NanoBRET signals (donor emission wavelength at 450 nm, acceptor emission wavelength at 610 nm) were measured using Envision plate reader (PerkinElmer). NanoBRET ratio was calculated by: BRET Ratio=raw signal for acceptor/raw signal for donor. Dose response curve normalized to DMSO control was plotted using four-parameter logistic model for IC50 calculation.

[3] = biological target: T3, CDK4-NanoLuc fusion with CCND1 in 293T or 293 cells (Homo sapiens, UniProt P11802); test: NanoBRET Target Engagement (TE) Intracellular Kinase Assay, CDK4/CCND1; conditions: NanoBRET TE intracellular kinase assay, 2-hour incubation, read-out: NanoBRET-CDK4/D1 IC50
T3 construct: host or cells: 293T (ATCC CRL-3216) or 293 (ATCC CRL-1573)
T3 sequence (P11802 whole entry, the tested form may be a part): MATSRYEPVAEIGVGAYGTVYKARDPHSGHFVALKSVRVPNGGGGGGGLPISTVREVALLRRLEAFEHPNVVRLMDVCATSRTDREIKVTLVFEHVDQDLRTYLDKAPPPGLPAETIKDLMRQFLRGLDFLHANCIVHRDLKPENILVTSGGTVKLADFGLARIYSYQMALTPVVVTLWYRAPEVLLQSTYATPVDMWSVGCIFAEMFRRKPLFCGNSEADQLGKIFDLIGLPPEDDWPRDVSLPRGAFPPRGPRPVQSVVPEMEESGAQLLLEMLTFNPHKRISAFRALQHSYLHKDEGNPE
T3 sequence (P24385 whole entry partner, the tested form may be a part): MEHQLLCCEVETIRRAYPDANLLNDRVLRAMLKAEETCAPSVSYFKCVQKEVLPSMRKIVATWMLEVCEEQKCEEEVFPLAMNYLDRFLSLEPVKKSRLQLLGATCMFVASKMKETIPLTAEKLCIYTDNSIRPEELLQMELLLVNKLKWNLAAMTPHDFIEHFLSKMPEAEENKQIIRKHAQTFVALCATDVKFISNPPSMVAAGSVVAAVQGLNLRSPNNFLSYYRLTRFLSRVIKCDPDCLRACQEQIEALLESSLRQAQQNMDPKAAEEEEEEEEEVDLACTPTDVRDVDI

[4] = tested on: Phospho-Rb Ser807/811 in OVCAR3 cells; test: OVCAR3 Phospho-Rb Ser807/811 HTRF assay; conditions: Homo sapiens, read-out: pRb-OVCAR3 IC50
Procedure: Cells were trypsinized and resuspended in 1 mM hydroxyurea (Sigma; H8627), 90% RPMI and 10% fetal bovine serum. […] Dose response curve normalized to DMSO control was plotted using four-parameter logistic model for IC50 calculation.

[5] = OVCAR-3, 1 h, OVCAR3 cells, Phospho-Rb Ser807/811 HTRF, 1 hour incubation

## CC(C)NC(=O)O[C@@H]1CC[C@H](c2cc(NC(=O)[C@H]3C[C@H](Oc4cccc(O)c4C=O)C3)n[nH]2)C1 (single isomer, unassigned) [Compound 1]
[1]
  IC50: 7.87 nM
[2]
  IC50: 62.9 nM
[3]
  IC50: 1800 nM
[4]; [5]
  IC50: 274 nM

## CC(C)NC(=O)O[C@@H]1CC[C@H](c2cc(NC(=O)[C@H]3C[C@@H]3c3cccc(O)c3C=O)n[nH]2)C1 (single isomer, unassigned) [Compound 10]
[1]
  IC50: 6.04 nM
[2]
  IC50: 11.3 nM
[3]
  IC50: 1000 nM
[4]; [5]
  IC50: 67.6 nM

## COc1cc(O)c(C=O)c([C@H]2C[C@@H]2C(=O)Nc2cc([C@H]3CC[C@@H](OC(=O)NC(C)C)C3)[nH]n2)c1 (single isomer, unassigned) [Compound 90]
[1]
  IC50: 43.8 nM
[2]
  IC50: 213 nM
[3]
  IC50: 5100 nM
[4]; [5]
  IC50: 761 nM

## CC(C)NC(=O)O[C@@H]1CC[C@H](c2cc(NC(=O)[C@H]3C[C@@H](Oc4cccc(O)c4C=O)C3)n[nH]2)C1 (single isomer, unassigned) [Compound 94]
[1]
  IC50: 9.73 nM
[2]
  IC50: 165 nM
[3]
  IC50: 1310 nM
[4]; [5]
  IC50: 1440 nM

## CC(C)NC(=O)O[C@@H]1CC[C@H](c2cc(NC(=O)C3C[C@H]3c3cccc(O)c3C=O)n[nH]2)C1 (stereo in doubt) [Compound 9, (1R,3S)-3-{5-[(1R,2R)-2-(2-formyl-3-hydroxyphenyl)cyclopropaneamido]-2H-pyrazol-3-yl}cyclopentyl N-isopropylcarbamate]
[1]
  IC50: 29.2 nM
[2]
  IC50: 50.3 nM
[3]
  IC50: 4700 nM
[4]; [5]
  IC50: 449 nM

## COCC1(NC(=O)O[C@@H]2CC[C@H](c3cc(NC(=O)COc4cc(OC)cc(O)c4C=O)n[nH]3)C2)CCC1 (stereo in doubt) [Compound 198]
[1]
  IC50: 1.92 nM
[2]
  IC50: 7 nM
[3]
  IC50: 3220 nM
[4]; [5]
  IC50: 38.7 nM

## CC(C)NC(=O)O[C@@H]1CC[C@H](c2cc(NC(=O)c3ccc(C=O)c(O)c3)n[nH]2)C1 [Compound 2, (1R,3S)-3-[5-(4-formyl-3-hydroxybenzamido)-2H-pyrazol-3-yl]cyclopentyl N-isopropylcarbamate; trifluoroacetic acid]
[1]
  IC50: 3.82 nM
[2]
  IC50: 3.45 nM
[3]
  IC50: 89.5 nM
[4]; [5]
  IC50: 68 nM

## CC(C)NC(=O)O[C@@H]1CC[C@H](c2cc(NC(=O)c3ccc(O)c(C=O)c3)n[nH]2)C1 [Compound 3, (1R,3S)-3-(3-(3-formyl-4-hydroxybenzamido)-1H-pyrazol-5-yl)cyclopentyl isopropylcarbamate trifluoroacetic acid]
[1]
  IC50: 9.48 nM
[2]
  IC50: 32.8 nM
[3]
  IC50: 255 nM
[4]; [5]
  IC50: 129 nM

## CC(C)NC(=O)O[C@@H]1CC[C@H](c2cc(NC(=O)Cc3ccc(C=O)c(O)c3)n[nH]2)C1 [Compound 4, (1R,3S)-3-{5-[2-(4-formyl-3-hydroxyphenyl)acetamido]-2H-pyrazol-3-yl}cyclopentyl N-isopropylcarbamate]
[1]
  IC50: 5.47 nM
[2]
  IC50: 7.08 nM
[3]
  IC50: 6.91 nM
[4]; [5]
  IC50: 68.8 nM

## CC(C)NC(=O)O[C@@H]1CC[C@H](c2cc(NC(=O)Cc3ccc(O)c(C=O)c3)n[nH]2)C1 [Compound 5, (1R,3S)-3-{5-[2-(3-formyl-4-hydroxyphenyl)acetamido]-2H-pyrazol-3-yl}cyclopentyl N-isopropylcarbamate]
[1]
  IC50: 6.58 nM
[2]
  IC50: 5.54 nM
[3]
  IC50: 52.6 nM
[4]; OVCAR-3, 1 h
  IC50: 187 nM

## CC(C)NC(=O)O[C@@H]1CC[C@H](c2cc(NC(=O)CCc3ccc(O)c(C=O)c3)n[nH]2)C1 [Compound 6, (1R,3S)-3-{5-[3-(3-formyl-4-hydroxyphenyl)propan-amido]-2H-pyrazol-3-yl}cyclopentyl N-isopropylcarbamate; trifluoroacetic acid]
[1]
  IC50: 12.5 nM
[2]
  IC50: 113 nM
[3]
  IC50: 397 nM
[4]; OVCAR-3, OVCAR3 cells, Phospho-Rb Ser807/811 HTRF, 1 hour incubation
  IC50: 618 nM

## CC(C)NC(=O)O[C@@H]1CC[C@H](c2cc(NC(=O)CCc3cccc(O)c3C=O)n[nH]2)C1 [Compound 7, (1R,3S)-3-(3-(3-(2-formyl-3-hydroxyphenyl)propanamido)-1H-pyrazol-5-yl)cyclopentyl isopropylcarbamate trifuoroacetic acid]
[1]
  IC50: 11.4 nM
[2]
  IC50: 275 nM
[3]
  IC50: 1850 nM
[4]; OVCAR-3, 1 h
  IC50: 1500 nM

## CC(C)NC(=O)O[C@@H]1CC[C@H](c2cc(NC(=O)CCCc3cccc(O)c3C=O)n[nH]2)C1 [Compound 12, 1R,3S)-3-(3-(4-(2-formyl-3-hydroxyphenyl)butanamido)-1H-pyrazol-5-yl)cyclopentyl isopropylcarbamate]
[1]
  IC50: 11.1 nM
[2]
  IC50: 126 nM
[3]
  IC50: 1450 nM

## CC(C)NC(=O)O[C@@H]1CC[C@H](c2cc(NC(=O)[C@@H]3Cc4ccc(O)c(C=O)c4C3)n[nH]2)C1 [Compound 26, (1R,3S)-3-{5-[(2R)-4-formyl-5-hydroxy-2,3-dihydro-1H-indene-2-amido]-2H-pyrazol-3-yl}cyclopentyl N-isopropylcarbamate]
[1]
  IC50: 2.78 nM
[2]
  IC50: 21.7 nM
[4]; [5]
  IC50: 94.5 nM

## CC(C)NC(=O)O[C@@H]1CC[C@H](c2cc(NC(=O)[C@@H]3Cc4ccc(O)c(C=O)c4C3)n[nH]2)C1 [Compound 256]
[1]
  IC50: 3.76 nM
[2]
  IC50: 20.3 nM
[4]; [5]
  IC50: 68.9 nM

## CC(C)NC(=O)O[C@@H]1CC[C@H](c2cc(NC(=O)CNc3cccc(O)c3C=O)n[nH]2)C1 [Compound 259]
[1]
  IC50: 649 nM
[2]
  IC50: 8060 nM
[3]
  IC50: > 10000 nM

## CCN(C)NC(=O)O[C@@H]1CC[C@H](c2cc(NC(=O)COc3cc(OC)cc(O)c3C=O)n[nH]2)C1 [Compound 274, (1R,3S)-3-(3-(2-(2-formyl-3-hydroxy-5-methoxyphenoxy)acetamido)-1H-pyrazol-5-yl)cyclopentyl 2-ethyl-2-methylhydrazine-1-carboxylate]
[1]
  IC50: 3.17 nM
[3]
  IC50: > 10000 nM
[4]; [5]
  IC50: 54.7 nM

## CCN(NC)C(=O)O[C@@H]1CC[C@H](c2cc(NC(=O)COc3cc(OC)cc(O)c3C=O)n[nH]2)C1 [Compound 275, (1R,3S)-3-(3-(2-(2-formyl-3-hydroxy-5-methoxyphenoxy)acetamido)-1H-pyrazol-5-yl)cyclopentyl 1-ethyl-2-methylhydrazine-1-carboxylate]
[1]
  IC50: 3.11 nM
[3]
  IC50: 5300 nM
[4]; [5]
  IC50: 35.7 nM

## CCNN(C)C(=O)O[C@@H]1CC[C@H](c2cc(NC(=O)COc3cc(OC)cc(O)c3C=O)n[nH]2)C1 [Compound 276, (1R,3S)-3-(3-(2-(2-formyl-3-hydroxy-5-methoxyphenoxy)acetamido)-1H-pyrazol-5-yl)cyclopentyl 2-ethyl-1-methylhydrazine-1-carboxylate]
[1]
  IC50: 5.09 nM
[3]
  IC50: > 10000 nM
[4]; [5]
  IC50: 31.6 nM

## CCN(CC)N(C)C(=O)O[C@@H]1CC[C@H](c2cc(NC(=O)COc3cc(OC)cc(O)c3C=O)n[nH]2)C1 [Compound 277, (1R,3S)-3-(3-(2-(2-formyl-3-hydroxy-5-methoxyphenoxy)acetamido)-1H-pyrazol-5-yl)cyclopentyl 2,2-diethyl-1-methylhydrazine-1-carboxylate]
[1]
  IC50: 1.48 nM
[3]
  IC50: 5090 nM
[4]; [5]
  IC50: 25.6 nM

## COc1cc(O)c(C=O)c(OCC(=O)Nc2cc([C@H]3CC[C@@H](OC(=O)N4CCCN4C)C3)[nH]n2)c1 [Compound 278, (1R,3S)-3-(3-(2-(2-formyl-3-hydroxy-5-methoxyphenoxy)acetamido)-1H-pyrazol-5-yl)cyclopentyl 2-methylpyrazolidine-1-carboxylate]
[1]
  IC50: 4.1 nM
[3]
  IC50: > 10000 nM
[4]; [5]
  IC50: 95.9 nM

## CNN(C)C(=O)O[C@@H]1CC[C@H](c2cc(NC(=O)COc3cc(OC)cc(O)c3C=O)n[nH]2)C1 [Compound 279, (1R,3S)-3-(3-(2-(2-formyl-3-hydroxy-5-methoxyphenoxy)acetamido)-1H-pyrazol-5-yl)cyclopentyl 1,2-dimethylhydrazine-1-carboxylate]
[1]
  IC50: 4.32 nM
[3]
  IC50: > 10000 nM
[4]; [5]
  IC50: 63.9 nM

— patent US20250289789A1, “REVERSIBLE LYSINE COVALENT MODIFIERS OF CDK2 AND USES THEREOF” (Terremoto Biosciences, Inc., priority 2023, published 2025)
